Values of other authors in patent US20260199368A1, “[…] SYSTEM CONTAINING REMIMAZOLAM” (LTS LOHMANN THERAPIE-SYSTEME AG, priority 2022, published 2026).

Conditions: intranasal administration; cited from earlier work

Compound: COC(=O)CC[C@@H]1N=C(c2ccccn2)c2cc(Br)ccc2-n2c(C)cnc21 [remimazolam, methyl 3-{(4S)-8-bromo-1-methyl-6-(pyridin-2-yl)-4/-/-imidazo[1,2-a][1,4]benzodiazepin-4-yl}propanoate]
- bioavailability: about 50%
